{"source": "paper PMC4865845", "about": "“A human genome-wide loss-of-function screen identifies effective chikungunya antiviral drugs” (Nature Communications, 2016)", "system": "CHIKV", "format": "cell-based, chikungunya virus"}
{"substance": "s3625 (CAGTGAAGCTAGAATCTCA; chemistry not given here)", "values": [{"measurement": "Score_si4", "value": 1.54}]}
{"substance": "s3626 (GAATTTGCGATGTACTTAA; chemistry not given here)", "values": [{"measurement": "Score_si2", "value": 1.98}]}
{"substance": "s4917 (sense GTGTATGAGTTTAGAGTCA; chemistry not given here)", "values": [{"measurement": "Score_si2", "value": 1.15}]}
{"substance": "s4918 (sense GGCACTTACTATGACAATT; chemistry not given here)", "values": [{"measurement": "Score_si3", "value": 1.02}]}
{"substance": "s5030 (sense GGTATGCGACGGGAAAGTA; chemistry not given here)", "values": [{"measurement": "Score_si3", "value": 1.75}]}
{"substance": "s5031 (sense CCGTGGACCTGATCATCAA; chemistry not given here)", "values": [{"measurement": "Score_si2", "value": 2.04}]}
{"substance": "s5032 (sense GGAGCGTATCTGTGAGAAA; chemistry not given here)", "values": [{"measurement": "Score_si4", "value": 1.56}]}
{"substance": "s5082 (sense CCTCGATAATATAACACGA; chemistry not given here)", "values": [{"measurement": "Score_si4", "value": 0.67}]}
{"substance": "s5083 (sense CGTCGTCACTAACAGTCAA; chemistry not given here)", "values": [{"measurement": "Score_si3", "value": 1.11}]}
{"substance": "s5295 (sense CGAGGTCATTGTGCATGAA; chemistry not given here)", "values": [{"measurement": "Score_si4", "value": 0.77}]}
{"substance": "s5296 (sense GCTTCACCATCGAATCCAA; chemistry not given here)", "values": [{"measurement": "Score_si3", "value": 1.01}]}
{"substance": "s5569 (sense AGGCTGAAGCTAATAAGAA; chemistry not given here)", "values": [{"measurement": "Score_si3", "value": 0.16}]}
{"substance": "s5570 (sense TGAACAAGATGGTATCAAA; chemistry not given here)", "values": [{"measurement": "Score_si4", "value": -0.08}]}
{"substance": "s5571 (sense GCAGGACGAGGGTAAAGAA; chemistry not given here)", "values": [{"measurement": "Score_si2", "value": 0.56}]}
{"substance": "s6097 (sense TCAGGACCCTGTACACCCA; chemistry not given here)", "values": [{"measurement": "Score_si4", "value": 0.9}]}
{"substance": "s6098 (sense CCTTTAACGTGGACATGTA; chemistry not given here)", "values": [{"measurement": "Score_si1", "value": 1.88}]}
{"substance": "s6126 (sense GAATGCTCCTTTACCAGAA; chemistry not given here)", "values": [{"measurement": "Score_si2", "value": 0.75}]}
{"substance": "s6350 (sense GCCCATATACATTCTGCAA; chemistry not given here) [reference compound]", "values": [{"measurement": "Score_si4", "value": -0.73}]}
{"substance": "s6670 (sense CAACAGGAGGAAGACTTTA; chemistry not given here)", "values": [{"measurement": "Score_si4", "value": -0.15}]}
{"substance": "s6671 (sense CAACGAAAATCTAAATGCA; chemistry not given here)", "values": [{"measurement": "Score_si2", "value": 0.2}]}
{"substance": "s6672 (sense GACTAATGAACTACTAAAA; chemistry not given here)", "values": [{"measurement": "Score_si3", "value": 0.16}]}
{"substance": "s7005 (sense AGAAAAATCTCAAGGAAAA; chemistry not given here)", "values": [{"measurement": "Score_si3", "value": 1.86}]}
{"substance": "s7007 (sense GGATCGGGTTCTAAAGGAA; chemistry not given here)", "values": [{"measurement": "Score_si2", "value": 1.87}]}
{"substance": "s7586 (sense CCTACTGTCTGGTAGCGAT; chemistry not given here)", "values": [{"measurement": "Score_si2", "value": 1.49}]}
{"substance": "s8004 (sense GTGGAGGAATGGTTCAATA; chemistry not given here)", "values": [{"measurement": "Score_si3", "value": 0.87}]}
{"substance": "s8005 (sense CCATGACTCCTGACTACCA; chemistry not given here)", "values": [{"measurement": "Score_si4", "value": 0.75}]}
{"substance": "s8261 (sense GGGTGGAGGTGTACTATGA; chemistry not given here)", "values": [{"measurement": "Score_si3", "value": 0.99}]}
{"substance": "s8290 (sense GGTGCTAACCGGATAGTAT; chemistry not given here)", "values": [{"measurement": "Score_si4", "value": 0.74}]}
{"substance": "s8292 (sense GGATTGTTATCCGACTGAA; chemistry not given here)", "values": [{"measurement": "Score_si3", "value": 1.63}]}
{"substance": "s8322 (GGTCGGAGATTTGCAAGGA; chemistry not given here)", "values": [{"measurement": "Score_si3", "value": 1.44}]}
{"substance": "s8324 (GCTGGGAAGGGATACCACA; chemistry not given here)", "values": [{"measurement": "Score_si1", "value": 1.92}]}
{"substance": "s8541 (CAATCTCCGGAGGCACGAA; chemistry not given here)", "values": [{"measurement": "Score_si3", "value": 0.12}]}
{"substance": "s8542 (AGGTTTTAACGATTTGTTT; chemistry not given here)", "values": [{"measurement": "Score_si2", "value": 0.14}]}
{"substance": "s8543 (CCTCAACAGTCACGTCAGA; chemistry not given here)", "values": [{"measurement": "Score_si4", "value": -0.08}]}
{"substance": "s9030 (CATCTGGAATTAACTGGAT; chemistry not given here)", "values": [{"measurement": "Score_si3", "value": 1.53}]}
{"substance": "s9031 (CGACGACAGCTACTGGTTT; chemistry not given here)", "values": [{"measurement": "Score_si4", "value": 0.9}]}
{"substance": "s9324 (ACAACTTCAGTGCTGATCA; chemistry not given here)", "values": [{"measurement": "Score_si3", "value": 0.83}]}
{"substance": "s9325 (CTTCAGTGCTGATCAGGTA; chemistry not given here)", "values": [{"measurement": "Score_si4", "value": 0.41}]}
{"substance": "s9326 (GGACTTAGTATAATGTGAA; chemistry not given here)", "values": [{"measurement": "Score_si2", "value": 1}]}
{"substance": "s9337 (GCTCTCCAACAATTACTAT; chemistry not given here) [reference compound]", "values": [{"measurement": "Score_si4", "value": -0.09}]}
{"substance": "s9338 (ACAAGCTCTCCAACAATTA; chemistry not given here) [reference compound]", "values": [{"measurement": "Score_si2", "value": -0.79}]}
{"substance": "s9339 (TCACTTCTAGTTTTACTTT; chemistry not given here) [reference compound]", "values": [{"measurement": "Score_si3", "value": -0.69}]}
{"substance": "s9627 (GGACCAGTTTGAGAGTGAA; chemistry not given here)", "values": [{"measurement": "Score_si2", "value": 1.39}]}
{"substance": "s9628 (GACCTAAAGAAGGAGATTA; chemistry not given here)", "values": [{"measurement": "Score_si4", "value": 1.13}]}
{"substance": "s9665 (CTCTCGTCCTTCTAGTAAA; chemistry not given here) [reference compound]", "values": [{"measurement": "Score_si3", "value": -0.95}]}
{"substance": "s9666 (CGTGTACTCTGTTTCGACA; chemistry not given here) [reference compound]", "values": [{"measurement": "Score_si4", "value": -0.83}]}
{"substance": "s9719 (GGTCTATGATTGACAAGTA; chemistry not given here)", "values": [{"measurement": "Score_si1", "value": 1.65}]}
{"substance": "s10094 (AGATCAAAGAGATCCGCGA; chemistry not given here)", "values": [{"measurement": "Score_si4", "value": 0.28}]}
{"substance": "s10096 (GGTGTAAGATCAAAGAGAT; chemistry not given here)", "values": [{"measurement": "Score_si3", "value": 1.3}]}
{"substance": "s10394 (GCTTTATGCTGCTAAGGCA; chemistry not given here)", "values": [{"measurement": "Score_si4", "value": 1.23}]}
{"substance": "s10395 (sense GGACGACTTCTTTAAGTCA; chemistry not given here)", "values": [{"measurement": "Score_si3", "value": 1.58}]}
{"substance": "s10856 (sense AAGTTTACGTGAACAAATT; chemistry not given here)", "values": [{"measurement": "Score_si3", "value": -0.27}]}
{"substance": "s10857 (sense GAATCCGGTTTGGAATATA; chemistry not given here)", "values": [{"measurement": "Score_si4", "value": -0.29}]}
{"substance": "s10858 (sense CCCGCTTTATCGAAGGCAA; chemistry not given here)", "values": [{"measurement": "Score_si2", "value": 1.05}]}
{"substance": "s10955 (sense GAGAAGAAGTATTACTTAT; chemistry not given here)", "values": [{"measurement": "Score_si4", "value": 0.29}]}
{"substance": "s10956 (sense CAAGCGGATTTCTACCCTT; chemistry not given here)", "values": [{"measurement": "Score_si1", "value": 1.05}]}
{"substance": "s11515 (sense GGATAACACTGTACAAGCT; chemistry not given here)", "values": [{"measurement": "Score_si1", "value": 1.79}]}
{"substance": "s11517 (sense GCGAAGTGTTTGTAAATCA; chemistry not given here)", "values": [{"measurement": "Score_si4", "value": 1.19}]}
{"substance": "s11586 (sense GGATAGTGTTCTTAGCAAT; chemistry not given here)", "values": [{"measurement": "Score_si4", "value": 0.13}]}
{"substance": "s11587 (sense CAGGTCACATTGTTCCTGA; chemistry not given here)", "values": [{"measurement": "Score_si2", "value": 1.27}]}
{"substance": "s11745 (sense CACTCTCTGTAAGCATATA; chemistry not given here)", "values": [{"measurement": "Score_si2", "value": 1.42}]}
{"substance": "s12099 (sense GCTTGTAGGTGATACACCT; chemistry not given here)", "values": [{"measurement": "Score_si2", "value": 1.09}]}
{"substance": "s12109 (sense CAGCCCTTGTTCTCATCAA; chemistry not given here)", "values": [{"measurement": "Score_si3", "value": 1.16}]}
{"substance": "s12110 (sense CAATCTCTCTTATCCTTGA; chemistry not given here)", "values": [{"measurement": "Score_si2", "value": 1.28}]}
{"substance": "s12243 (sense GCTGGGACAAGACACTGTA; chemistry not given here)", "values": [{"measurement": "Score_si3", "value": 1.87}]}
{"substance": "s12245 (sense CCATCAGGACCACTATTAA; chemistry not given here)", "values": [{"measurement": "Score_si4", "value": 0.57}]}
{"substance": "s12353 (sense GGCATGTCGGTTACAAGAA; chemistry not given here)", "values": [{"measurement": "Score_si1", "value": 1.86}]}
{"substance": "s12381 (sense AGGCTCAGATCGACCAATA; chemistry not given here)", "values": [{"measurement": "Score_si3", "value": 0.71}]}
{"substance": "s12382 (sense GATCCGAGCTAAAATCCCA; chemistry not given here)", "values": [{"measurement": "Score_si2", "value": 1.86}]}
{"substance": "s12384 (sense TCGTCCTCTTTAACCCTGA; chemistry not given here)", "values": [{"measurement": "Score_si3", "value": 1.24}]}
{"substance": "s12452 (sense GGACCAAGATGATCAGAAA; chemistry not given here)", "values": [{"measurement": "Score_si4", "value": 0.08}]}
{"substance": "s12470 (sense GGATGTGGACAACAAAGTA; chemistry not given here)", "values": [{"measurement": "Score_si4", "value": 1.56}]}
{"substance": "s12471 (sense CTTCTGTACCCATCAGTAA; chemistry not given here)", "values": [{"measurement": "Score_si3", "value": 1.63}]}
{"substance": "s13805 (sense TCACTGTGCTGATCGGGAA; chemistry not given here)", "values": [{"measurement": "Score_si3", "value": 0.78}]}
{"substance": "s13806 (sense TCATCACCGTGTCCAATCA; chemistry not given here)", "values": [{"measurement": "Score_si2", "value": 1.6}]}
{"substance": "s13807 (sense GCATCTGAAGACTCAGGCA; chemistry not given here)", "values": [{"measurement": "Score_si4", "value": -0.26}]}
{"substance": "s14080 (sense GAGTGGTCTTTTCAACACT; chemistry not given here)", "values": [{"measurement": "Score_si2", "value": 1.38}]}
{"substance": "s14380 (sense GGACCACGTCAAGACTTGT; chemistry not given here) [reference compound]", "values": [{"measurement": "Score_si3", "value": -0.84}]}
{"substance": "s14674 (sense GTATGAAGGAGGTATCTTT; chemistry not given here)", "values": [{"measurement": "Score_si2", "value": 2.12}]}
{"substance": "s14705 (sense GCAGTTGAATTATCACAGT; chemistry not given here)", "values": [{"measurement": "Score_si2", "value": 1.97}]}
{"substance": "s14706 (sense GCATGATCTAGATCGAGTA; chemistry not given here)", "values": [{"measurement": "Score_si3", "value": 1.88}]}
{"substance": "s15562 (sense GCTTAGAAATGGACGACGA; chemistry not given here) [reference compound]", "values": [{"measurement": "Score_si3", "value": -0.27}]}
{"substance": "s15564 (sense GCTTGAAGCTGAAAAGCGA; chemistry not given here) [reference compound]", "values": [{"measurement": "Score_si4", "value": 1.62}]}
{"substance": "s15614 (sense GCAAGTCGTGAAACTATAA; chemistry not given here)", "values": [{"measurement": "Score_si4", "value": 0.64}]}
{"substance": "s15684 (sense GGAGCTGATCATCAACAAA; chemistry not given here)", "values": [{"measurement": "Score_si4", "value": 1.33}]}
